# From US6727059B1, “METHOD FOR CONTROLLING THE FIDELITY AND PROCESSIVITY OF REVERSE TRANSCRIPTASE BY INCORPORATION AND POLYMERIZATION OF NUCLEOTIDE ANALOGS ACCEPTED AS SUBSTRATES FOR THE REVERSE TRANSCRIPTION REACTION WITHOUT BLOCKING ITS ELONGATION” (priority 2002, dated 2004)
# Assays:
# Assay type in all cases: biochemical
# [1] = biological target: T1, Klenow fragment of E.coli DNA-dependent DNA polymerase (Escherichia coli, UniProt P00582); test: Identification of termination sites of polymerization with base analogs, Klenow fragment; conditions: pbs primer; for termination rate with the analog compared to the normal dNTP: analog replaces its normal dNTP, each dNTP 500 μM, 30 min 25° C., positions +20 to +55
# T1 construct: the Klenow fragment of E.coli DNA-dependent DNA polymerase (KF)
# T1 sequence (P00582 324-928): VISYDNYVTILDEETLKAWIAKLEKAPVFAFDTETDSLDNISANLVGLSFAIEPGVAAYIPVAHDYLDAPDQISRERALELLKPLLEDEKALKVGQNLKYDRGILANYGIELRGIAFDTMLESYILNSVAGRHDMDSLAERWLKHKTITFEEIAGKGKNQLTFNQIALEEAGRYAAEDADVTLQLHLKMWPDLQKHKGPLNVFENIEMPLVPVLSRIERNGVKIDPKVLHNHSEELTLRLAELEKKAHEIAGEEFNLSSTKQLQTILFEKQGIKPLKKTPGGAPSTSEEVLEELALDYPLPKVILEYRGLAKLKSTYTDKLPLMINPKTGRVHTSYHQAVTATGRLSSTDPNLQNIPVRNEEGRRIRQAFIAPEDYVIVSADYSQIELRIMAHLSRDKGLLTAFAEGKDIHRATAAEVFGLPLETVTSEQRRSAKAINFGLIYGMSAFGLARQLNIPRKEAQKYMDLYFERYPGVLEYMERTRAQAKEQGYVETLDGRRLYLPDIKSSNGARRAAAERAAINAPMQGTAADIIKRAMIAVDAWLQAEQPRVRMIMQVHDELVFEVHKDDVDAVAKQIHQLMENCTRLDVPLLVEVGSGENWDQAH
# Source text: These matrices were used for parallel studies of HIV-1 reverse transcriptase and of the Klenow fragment of E.coli DNA-dependent DNA polymerase (KF). There have been many studies relating to the fidelity and processivity of the Klenow fragment (Abbotts and Wilson, 1988; Lecomte and Ninio, 1987, 1988; Papanicolaou and Ripley, 1989 and 1991).
# (§1) The termination sites were identified during polymerization catalyzed by the HIV-1 reverse transcriptase and the Klenow fragment by changing one of the dNTPs for its base analog. dTTP was replaced with dUTP, dGTP was replaced with dITP or c7dGTP and dATP was replaced with c7dATP. In this study, the synthesis is primed with pbs.
# (§2) The reaction begins by formation of the reaction complex between the matrix/primer labeled at the 5′ end (0.05 pmol) with the enzyme (0.01 U/μl) by incubation at 37° C. for 3 min for the 3 RTs and at 25° C. for the Klenow fragment. A solution containing the 3 dNTPs and one of the analogs, each at the final concentration of 500 μM, and trapping DNA (100:1:trapping DNA:matrix/cold primer) is then added. The use of trapping DNA makes it possible to prevent the reinitialization of the polymerization at the termination sites. In parallel, a control in the presence of the 4 “normal” dNTPs was carried out under reaction conditions identical to the reaction in the presence of analogs. The mixture is incubated for 30 min at 37° C. for the HIV-1 reverse transcriptase and at 25° C. for the Klenow fragment. The reaction is stopped by adding ⅓ volume of stop solution (v/v), and then the reaction products are loaded onto a denaturing 8 M urea 13% acrylamide gel. Position of the termination sites is identified by the co-migration of the sequencing products (Sanger method).
# (§3) Each reaction was carried out 3 times; variations in the strength of the termination rates are observed, but they are small and less than 10%. For the HIV-1 reverse transcriptase and the Klenow fragment, the synthesis termination rates with the various analogs (black rods) as a function of the sequence are given in the presence of the termination rates obtained in the control reaction, i.e. in the presence of the “normal” bases (white rods).
# Overall, the presence of the base analogs reduces the efficiency of the Klenow fragment polymerization, making it difficult to detect termination sites beyond the position +55, and for this reason, we have represented, in the various figures which follow, only the termination sites located between position +20 and +55.
# [2] = biological target: T2, HIV-1 reverse transcriptase (Human immunodeficiency virus type 1 group M subtype B, UniProt P04585); test: Identification of termination sites of polymerization with base analogs, HIV-1 reverse transcriptase; conditions: pbs primer; for number of new termination sites appearing / termination rate with the analog compared to the normal dNTP, overall: analog replaces its normal dNTP; for termination rate with the analog compared to the normal dNTP, overall: each dNTP 500 μM, 30 min 37° C.
# Source text: The termination sites and the termination rates at each site were studied in the presence of 4 natural dNTPs present in excess, or in the presence of three of these natural dNTPs, the fourth being replaced with an analog: dUTP as a replacement for dTTP, dITP and c7dGTP as a replacement for dGTP and, finally, c7dATP in place of dATP (FIGS. 1.2 and 1.3). These analogs affect the formation of the hydrogen bonds in the two grooves of the double helix.
# as §1, §2, §3
# [3] = biological target: T2, HIV-1 reverse transcriptase; test: Kinetics of misincorporation (error rate) in the minus A reaction with base analogs; conditions: absence of dATP; for error rate at the first misincorporation site opposite T-135, start of the kinetics: starting value
# Source text: In order to understand the role of the three dNTPs present involved in the misincorporation subsequent to the absence of the fourth dNTP, dGTP and/or dCTP were replaced with dITP and dUTP, respectively, in the reaction minus A. dITP was chosen because I can pair with T and therefore compensate for the absence of A, and dUTP was chosen in order to assess the affect that the absence of the methyl of a T may have on the fidelity of incorporation of the neighboring pair. For this reason, we are interested not only in the sites and rates of misincorporations, but in the kinetics with which these misincorporations take place. The conditions most suited to the lack of fidelity of the HIV-RT were selected: use of the matrix+env (ppt primer) and absence of dATP (data not shown).
# After hybridization of the ppt primer labeled at the 5′ end (1 pmol), with the matrix+env (2 pmol), the HIV-1 reverse transcriptase is added at the final concentration of 0.1 U/μl. Solutions containing dCTP, dGTP, dTTP (control), dCTP, dITP, dTTP or dCTP, dGTP, dUTP or dCTP, dITP, dUTP, each at the final concentration of 500 μM, were added to equivalent (¼ of the mixture) fractions. […] After denaturation at 92° C. for 5 min, the reaction products are loaded onto an 8M urea denaturing 13% acrylamide gel.
# FIG. 4.4 represents the variation in the misincorporation rate in front of T-135 (matrix), the first misincorporation site, as a function of time and of the base analog used.
# [4] = biological target: T2, HIV-1 reverse transcriptase; test: Analysis of mismatches: restriction test and sequencing of mutated plasmids from the minus A reaction; conditions: for fidelity of the HIV-1 reverse transcriptase / profile of mutations: analog instead of normal dNTP
# Protocol: Matrix/labeled primer (0.5 pmol), reverse transcriptase (0.04 U/μl) and the 3 dNTPs (500 μM final) were incubated for 30 min at 37° C., and then the dATP (500 μM final) was added and the incubation continued for 30 min at 37° C. The reaction is then stopped by adding EDTA at the concentration of 10 mM final. The reaction products are recovered after alcohol precipitation and digested with the Sac I enzyme. After denaturation at 90° C. for 3 min, the product is loaded onto a denaturing 10% acrylamide gel. After migration and auto-radiography, the 200-base bands are recovered on the gel and then purified. These fragments are amplified by PCR (15 cycles), cleaved with Mlu I and Bam H I and inserted into pBluescript SK+ppt by ligation with T4 DNA ligase, followed by transformation with XL-1 Blue.
# The mutated plasmids are easily selected since they no longer have the restriction site recognized by the Nco I enzyme (see FIG. 4.5). In addition, the absence of enzymatic digestion with Sph I implies a double mutation.
# The polymerization reaction was carried out in the absence of dATP, as for the reaction in the presence of the “natural” bases, but the dGTP was replaced with dITP or the dTTP was replaced by dUTP. After 30 min at 37° C. in the presence of the HIV-1 reverse transcriptase and of 3 of the 4 bases, the matrix/labeled primer is purified on a Sephadex G50 column, so as to eliminate the nucleotides which have not been incorporated, and in particular the dITP and dUTP which would modify the Sac I restriction site. The elongation is then continued for 30 min at 37° C. in the presence of the 4 natural dNTPs, at the final concentration of 500 μM, and of the enzyme (0.05 U/μl). After alcohol precipitation, digestion with the Sac I restriction enzyme and recovery of the 200-base band, a PCR is carried out under the same conditions as for the reaction in the presence of the “natural” bases. […]
# [5] = matrix +env, ppt primer, dNTPs 500 μM each
# [6] = 7 plasmids sequenced, minus A, dITP instead of dGTP
# [7] = of 36 plasmids isolated, minus A, Nco I and Sph I digestion test
# [8] = sequenced plasmids, absence of dATP and dGTP
smiles,measurement,setting,value
Nc1nc2c(ccn2C2CC(O)C(COP(=O)(O)OP(=O)(O)OP(=O)(O)O)O2)c(=O)[nH]1 (centres unmarked) [c7dGTP],termination rate with the analog compared to the normal dNTP,[1],All the stops on the sites at which the c7dGMP is incorporated into the polymerized strand are increased
same,decrease of the termination rate at C32,"[1]; c7dGTP instead of dGTP, 500 μM",26%
same,number of new termination sites appearing,[2]; 500 μM,4 sites
same,"termination rate with the analog compared to the normal dNTP, overall",[2],"considerable increase at the start of elongation, and then a clear tendency toward decreasing the termination rate"
same,decrease of the termination rate at other sites,"[2]; c7dGTP instead of dGTP, 500 μM",up to 10 fold
same,decrease of the termination rate opposite C21,"[2]; c7dGTP instead of dGTP, 500 μM",10%
same,decrease of the termination rate opposite C49,"[2]; c7dGTP instead of dGTP, 500 μM",90%
same,increase of the termination rate at 6 of the 18 termination sites,"[2]; c7dGTP instead of dGTP, 500 μM",up to 3.5 fold
Nc1ncnc2c1ccn2[C@H]1C[C@H](O)[C@@H](COP(=O)(O)OP(=O)(O)OP(=O)(O)O)O1 [c7dATP],termination rate with the analog compared to the normal dNTP,[1],increase in the termination rates in 3 waves
same,number of new termination sites appearing,[2]; 500 μM,3 sites
same,"termination rate with the analog compared to the normal dNTP, overall",[2],little effect overall
same,decrease of the termination rate on A75,"[2]; c7dATP instead of dATP, 500 μM",~2 fold
same,increase of termination strength opposite A41,"[2]; c7dATP instead of dATP, 500 μM",7 ×
same,increase of termination strength opposite T76,"[2]; c7dATP instead of dATP, 500 μM",2 ×
same,increase of the termination rate at A41,"[2]; c7dATP instead of dATP, 500 μM",~7 fold
same,part of the elongation complexes stopped at new site T63,"[2]; c7dATP instead of dATP, 500 μM",half
same,termination rate on A35,"[2]; c7dATP instead of dATP, 500 μM",remains stable
O=c1ccn([C@H]2C[C@H](O)[C@@H](COP(=O)(O)OP(=O)(O)OP(=O)(O)O)O2)c(=O)[nH]1 [dUTP],termination rate with the analog compared to the normal dNTP,[1],significantly increases the termination rate of most of the sites which precede the incorporation of the dUMP
same,error rate at the first misincorporation site opposite T-135 after 10 min,[3]; [5],65%
same,error rate at the first misincorporation site opposite T-135 after 45 min,"[3]; matrix +env, ppt primer, dNTPs 500 μM each, 45 min",~77%
same,"error rate at the first misincorporation site opposite T-135, start of the kinetics",[3]; [5],5%
same,T:U mismatch,"[4]; 6 plasmids sequenced, minus A, dUTP instead of dTTP",No base U is incorporated
same,fidelity of the HIV-1 reverse transcriptase / profile of mutations,[4]; absence of dATP,only slightly modifies the profile and the specificity of the mutations
same,plasmids without any mutations on the Sph I and Nco I sites,"[4]; of 36 plasmids, minus A",15 plasmids
same,plasmids with at least two mutations,"[4]; of 36 plasmids, minus A, Sph I and Nco I digestion",21 plasmids
same,"number of T:C mismatches, all mismatches whatever their position","[4]; sequenced plasmids, minus A",6
same,"number of T:G mismatches, all mismatches whatever their position","[4]; sequenced plasmids, minus A",17
same,"termination rate with the analog compared to the normal dNTP, overall",[2],lower than with dTTP
same,decrease of the termination rate of most of the sites located before and after the incorporation of the analog (maximum),"[2]; dUTP instead of dTTP, 500 μM",≤ 5%
same,number of sites with a decrease of more than half of their termination rate,"[2]; dUTP instead of dTTP, 500 μM",Seven
O=c1[nH]cnc2c1ncn2[C@H]1C[C@H](O)[C@@H](COP(=O)(O)OP(=O)(O)OP(=O)(O)O)O1 [dITP],termination rate with the analog compared to the normal dNTP,[1],increases in the termination rates of the sites located before the incorporation of a dITP
same,decrease of the error rate observed with dGTP at the first misinsertion site,"[3]; dITP instead of dGTP, after 45 min of incubation",~50%
same,error rate at the first misincorporation site opposite T-135 after 10 min,[3]; [5],40%
same,"error rate at the first misincorporation site opposite T-135, start of the kinetics",[3]; [5],0%
same,deletion or insertion in the plasmids sequenced,"[4]; 7 plasmids sequenced, minus A",No deletion or insertion is detected
same,times C is incorporated at the 1st site of misincorporation (T-135 matrix),[4]; [6],4 times
same,times the I base is incorporated at the 1st site of misincorporation (T-135 matrix),[4]; [6],3 times
same,order of substitution at the T sites of the matrix,[4]; absence of dATP,C>>I>>T
same,fidelity of the HIV-1 reverse transcriptase / profile of mutations,[4]; absence of dATP,increased
same,mutation rate,"[4]; in vitro, absence of dATP, dITP instead of dGTP",decreases the mutation rate
same,plasmids mutated at least on the first site at which A is requested,[4]; [7],4 plasmids
same,plasmids mutated on at least the first three sites,[4]; [7],3 plasmids
same,plasmids mutated on the first two sites,[4]; [7],one
same,number of T:I pairings,[4]; [8],three
same,number of T:T pairings,[4]; [8],one
same,"number of T:C mismatches, all mismatches whatever their position","[4]; sequenced plasmids, minus A",eight
same,number of new termination sites appearing,[2]; 500 μM,Two
same,"termination rate with the analog compared to the normal dNTP, overall",[2],higher
same,factor of increase in the termination rates of 10 sites,"[2]; dITP instead of dGTP, 500 μM",~4
same,"termination strength at the exit of the series of 6As, on average","[2]; dITP instead of dGTP, 500 μM",doubled
